Data published in patent US20250214951A1, “3-PHENYLISOXAZOLE DERIVATIVE, AND PHARMACEUTICAL COMPOSITION FOR PREVENTING OR TREATING EYE DISEASE, CONTAINING SAME AS ACTIVE INGREDIENT” (VASTHERA CO., LTD., priority 2022, published 2025).

tested on: LC3-II; experiment: LC3-II production capacity at 10 μM (Table 4); type: cell-based; conditions: Homo sapiens, 12 h
Protocol: ARPE-19 was dispensed into a 6-well plate at a concentration of 1×10^5 cells/well and cultured for 24 hours. Then, cells were treated with example 17 compound of the present invention at concentrations of 10, 25, and 50 μM for 12 hours. Then, a cell lysis buffer containing a protease inhibitor was added to prepare a cell lysate. The LC3-II level was measured by Western immunoblotting using an anti-LC3-II antibody (Cell Signaling Technology, MA, USA). As an internal control, an antibody against β-actin (Cell Signaling Technology) was used and measured by Western immunoblotting in the same manner as above, and is shown in FIG. 6 (upper graph).
The autophagy activation effect of example compounds expected to have autophagy activation ability and low cytotoxicity among the example compounds in Table 2 above in human retinal pigment epithelial cells was evaluated according to Experimental Example 7. That is, the autophagy activation effect through the increase of LC3-II was evaluated in a concentration-dependent manner, and the results are shown in FIGS. 15 and 16.

Question: How did the fold induction at 10 µM turn out when C=C(C)Cc1ccc(OC)c(-c2cc(CN3CCN(C(=O)OC(C)(C)C)CC3)on2)c1 [Example 66, tert-butyl 4-((3-(2-methoxy-5-(2-methylallyl)phenyl)isoxazole-5-yl)methyl)piperazine-1-carboxylate] was run?
Answer: > 18

Question: How did the fold induction at 10 µM turn out when COc1ccc(C(C)C)cc1-c1cc(CN2CCN(C(C)=O)CC2)on1 [Example 63, 1-(4-((3-(5-isopropyl-2-methoxyphenyl)isoxazole-5-yl)methyl)piperazine-1-yl)ethan-1-on] was run?
Answer: 1.9

Question: For C=CCc1ccc(OC)c(-c2cc(CN3CCNCC3)on2)c1 [Example 29, 3-(5-allyl-methoxyphenyl)-5-(piperazine-1-ylmethyl)isoxazole], which fold induction at 10 µM is on record?
Answer: 5.8

Question: How did the fold induction at 10 µM turn out when CCCc1ccc(OC)c(-c2cc(CN3CCC(C(=O)O)CC3)on2)c1 [Example 55, 1-((3-(2-methoxy-5-propylphenyl)isoxazole-5-yl)methyl)piperidine-4-carboxylic acid] was run?
Answer: 1.8

Question: COc1ccc(C(C)C)cc1-c1cc(CO)on1 [Example 45, (3-(5-isopropyl-2-methoxyphenyl)isoxazole-5-yl)methanol] was tested. Which fold induction at 10 µM did it give?
Answer: 2.5

Question: Which fold induction at 10 µM does the source give for C=C(C)Cc1ccc(OC)c(-c2cc(CO)on2)c1 [Example 68, (3-(2-methoxy-5-(2-methylallyl)phenyl)isoxazole-5-yl)methanol] here?
Answer: 7.7

Question: With C=C(C)Cc1ccc(OC)c(-c2cc(CN3CCNCC3)on2)c1 [Example 67, 3-(2-methoxy-5-(2-methylallyl)phenyl)-5-(piperazine-1-ylmethyl)isoxazole] as the molecule, how does the fold induction at 10 µM read?
Answer: 22.7

Question: COc1ccc(C(F)(F)F)cc1-c1cc(CO)on1 [Example 31, (3-(2-methoxy-5-(trifluoromethyl)phenyl)isoxazole-5-yl)methanol] was tested. Which fold induction at 10 µM did it give?
Answer: 0.8

Question: Which fold induction at 10 µM does the source give for COc1ccc(C(F)(F)F)cc1-c1cc(C(C)(C)O)on1 [Example 32, 2-(3-(2-methoxy-5-(trifluoromethyl)phenyl)isoxazole-5-yl)propan-2-ol] here?
Answer: 0.9

Question: How did the fold induction at 10 µM turn out when C=CCc1ccc(-c2cc(CO)on2)c(OC)c1 [Example 44, (3-(4-allyl-2-methoxyphenyl)isoxazole-5-yl)methanol] was run?
Answer: 3.8

Question: How did the fold induction at 10 µM turn out when C=CCc1ccc(-c2cc(CN3CCNCC3)on2)c(OC)c1 [Example 49, 3-(4-allyl-2-methoxyphenyl)-5-(piperazine-1-ylmethyl)isoxazole] was run?
Answer: 1.1

Question: COCCc1ccc(OC)c(-c2cc(CN3CCN(C)CC3)on2)c1 [Example 62, 3-(2-methoxy-5-(2-methoxyethyl)phenyl)-5-((4-methylpiperazine-1-yl)methyl)isoxazole] was tested. Which fold induction at 10 µM did it give?
Answer: 2.4

Question: For CCCc1ccc(OC)c(-c2cc(CN3CCC(OC)CC3)on2)c1 [Example 54, 3-(2-methoxy-5-propylphenyl)-5-((4-methoxypiperidine-1-yl)methyl)isoxazole], which fold induction at 10 µM is on record?
Answer: 2.8

Question: For COc1ccc(CCO)cc1-c1cc(CN2CCN(C)CC2)on1 [Example 61, 2-(4-methoxy-3-(5-((4-methylpiperazine-1-yl)methyl)isoxazole-3-yl)phenyl)ethan-1-ol], which fold induction at 10 µM is on record?
Answer: 0.9

Question: How did the fold induction at 10 µM turn out when CCCc1ccc(OC)c(-c2cc(C(C)(C)O)on2)c1 [Example 40, 2-(3-(2-methoxy-5-propylphenyl)isoxazole-5-yl)propan-2-ol] was run?
Answer: 1.6

Question: For COc1ccc(C(C)C)cc1-c1cc(CN2CCN(C(=O)OC(C)(C)C)CC2)on1 [Example 46, tert-butyl 4-((3-(5-isopropyl-2-methoxyphenyl)isoxazole-5-yl)methyl)piperazine-1-carboxylate], which fold induction at 10 µM is on record?
Answer: 1.5

Question: For C=CCc1ccc(OC)c(-c2cc(C(C)(C)O)on2)c1 [Example 39, 2-(3-(5-allyl-2-methoxyphenyl)isoxazole-5-yl)propan-2-ol], which fold induction at 10 µM is on record?
Answer: 0.7

Question: For COc1ccc(CC=C(C)C)cc1-c1cc(CN2CCN(C)CC2)on1 [Example 69, 3-(2-methoxy-5-(3-methylbut-2-en-1-yl)phenyl)-5-((4-methylpiperazine-1-yl)methyl)isoxazole], which fold induction at 10 µM is on record?
Answer: 5

Question: Which fold induction at 10 µM does the source give for CCCc1ccc(OC)c(-c2cc(CN3CCc4sccc4C3)on2)c1 [Example 56, 5-((6,7-dihydrothieno[3,2-c]pyridin-5(4H)-yl)methyl)-3-(2-methoxy-5-propylphenyl)isoxazole] here?
Answer: 1.5

Question: Which fold induction at 10 µM does the source give for C=CCc1ccc(OC(F)(F)F)c(-c2cc(CN3CCNCC3)on2)c1 [Example 51, 3-(5-allyl-2-(trifluoromethoxy)phenyl)-5-(piperazine-1-ylmethyl)isoxazole] here?
Answer: > 15

Question: With CCCc1ccc(OC)c(-c2cc(CN3C[C@@H](C)O[C@@H](C)C3)on2)c1 [Example 53, (2S,6R)-4-((3-(2-methoxy-5-propylphenyl)isoxazole-5-yl)methyl)-2,6-dimethylmorpholine] as the molecule, how does the fold induction at 10 µM read?
Answer: 0.9

Question: With CCCc1ccc(OC)c(-c2cc(CN3CCn4ccnc4C3)on2)c1 [Example 57, 5-((5,6-dihydroimidazo[1,2-a]pyrazin-7(8H)-yl)methyl)-3-(2-methoxy-5-propylphenyl)isoxazole] as the molecule, how does the fold induction at 10 µM read?
Answer: 1.1

Question: Which fold induction at 10 µM does the source give for COc1ccc(C(F)(F)F)cc1-c1cc(CN2CCN(C)C(=O)C2)on1 [Example 37, 4-((3-(2-methoxy-5-(trifluoromethyl)phenyl)isoxazole-5-yl)methyl)-1-methylpiperazine-2-on] here?
Answer: 2.2

Question: For COc1ccc(C(F)(F)F)cc1-c1cc(CCO)on1 [Example 33, 2-(3-(2-methoxy-5-(trifluoromethyl)phenyl)isoxazole-5-yl)ethan-1-ol], which fold induction at 10 µM is on record?
Answer: 1.5

Question: For COc1ccc(N2CCOCC2)cc1-c1cc(CO)on1 [Example 38, (3-(2-methoxy-5-morpholinophenyl)isoxazole-5-yl)methanol], which fold induction at 10 µM is on record?
Answer: 1.2

Question: How did the fold induction at 10 µM turn out when COc1ccc(C(F)(F)F)cc1-c1cc(COCC(=O)O)on1 [Example 36, 2-((3-(2-methoxy-5-(trifluoromethyl)phenyl)isoxazole-5-yl)methoxy)acetic acid] was run?
Answer: 2.3

Question: Which fold induction at 10 µM does the source give for C=CCc1ccc(OC(F)(F)F)c(-c2cc(CN3CCN(C(=O)OC(C)(C)C)CC3)on2)c1 [Example 50, tert-butyl 4-((3-(5-allyl-2-(trifluoromethoxy)phenyl)isoxazole-5-yl)methyl)piperazine-1-carboxylate] here?
Answer: > 25

Question: Which fold induction at 10 µM does the source give for COc1cc(C(F)(F)F)ccc1-c1cc(CO)on1 [Example 35, (3-(2-methoxy-4-(trifluoromethyl)phenyl)isoxazole-5-yl)methanol] here?
Answer: 1.1

Question: With C=CCc1ccc(-c2cc(CN3CCN(C(=O)OC(C)(C)C)CC3)on2)c(OC)c1 [Example 48, tert-butyl 4-((3-(4-allyl-2-methoxyphenyl)isoxazole-5-yl)methyl)piperazine-1-carboxylate] as the molecule, how does the fold induction at 10 µM read?
Answer: > 15

Question: How did the fold induction at 10 µM turn out when C=CCc1ccc(OC(F)(F)F)c(-c2cc(CN3CCN(C)CC3)on2)c1 [Example 52, 3-(5-allyl-2-(trifluoromethoxy)phenyl)-5-((4-methylpiperazine-1-yl)methyl)isoxazole] was run?
Answer: > 13

Question: How did the fold induction at 10 µM turn out when C=CCc1ccc(OC)c(-c2cc(COc3ncnc4ccccc34)on2)c1 [Example 65, 3-(5-allyl-2-methoxyphenyl)-5-((quinazoline-4-yloxy)methyl)isoxazole] was run?
Answer: 1.8

Question: How did the fold induction at 10 µM turn out when C=CCc1ccc(OC(F)(F)F)c(-c2cc(CO)on2)c1 [Example 43, (3-(5-allyl-2-(trifluoromethoxy)phenyl)isooxazole-5-yl)methanol] was run?
Answer: 19.7
